Publication PMC7519074, “Polar functional group-containing glycolipid CD1d ligands modulate cytokine-biasing responses and prevent experimental colitis” (Scientific Reports, 2020)

How the values were obtained:
mCD1d-Fc fusion protein = target: T1, mCD1d-Fc fusion protein (Mus musculus, UniProt P11609); assay: Antigen presenting cell (APC)-free assay for lipid binding to mCD1d-Fc; IL-2 release by 2E10 NKT hybridoma cells; assay type: cell-based; parameters: unit not given here; conditions: mean ± SEM; for IL-2 production (exact values of IL-2): ligand 10 nM, Fig. 3a, b; for IL-2 production: ligand 100 nM, Fig. 3c, d
T1 construct: Ig (mouse immunoglobulin fusion partner); purchased BD Biosciences
T1 sequence (P11609 22-305 limits assumed): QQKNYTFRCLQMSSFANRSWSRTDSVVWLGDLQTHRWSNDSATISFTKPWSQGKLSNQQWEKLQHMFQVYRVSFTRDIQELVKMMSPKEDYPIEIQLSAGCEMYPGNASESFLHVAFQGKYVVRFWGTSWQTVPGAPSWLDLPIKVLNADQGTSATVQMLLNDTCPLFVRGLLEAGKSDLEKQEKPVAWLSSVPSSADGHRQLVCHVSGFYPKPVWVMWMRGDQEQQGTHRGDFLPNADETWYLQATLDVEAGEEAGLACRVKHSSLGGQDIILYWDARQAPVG
T1 sequence (P01887 21-119 partner): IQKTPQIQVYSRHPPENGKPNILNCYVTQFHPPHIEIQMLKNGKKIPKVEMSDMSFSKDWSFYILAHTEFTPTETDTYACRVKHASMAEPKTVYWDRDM
Method: NKT hybridoma 2E10 cells were cultured in RPMI-1640 (NACALAI TESQUE, INC) supplemented with 10% fetal bovine serum (FBS; Biowest), and 1% penicillin–streptomycin (Gibco).
For this assay, 96-well microplates (Bio-one 96-well cell culture plate, Greiner) were coated with mouse CD1d:Ig Fusion protein (BD Biosciences) (0.25 μg/well) in PBS at 37 °C for 24 h. […] After washing, 2E10 NKT hybridoma cells (2.5 × 10^5 cells/well) were added and cultured at 37 °C for 48 h. IL-2 release was measured with an ELISA kit (Affymetrix).

mouse splenocytes = assay: Cytokine secretion assay using mouse splenocyte; assay type: cell-based, C57BL/6 mice; parameters: IFN-γ production / IL-4 production / IL-17A production: unit not given here; conditions: for IL-4 production / IL-17A production / IFN-γ production: 10 nM ligand, 48 h; for IL-4 production: Fig. 4e; for IL-17A production: Fig. 4f; for IFN-γ production: Fig. 4d; for Relative ratio IL-4/IFN-γ of cytokine production compared to α-GalCer / Relative ratio IL-17A/IFN-γ of cytokine production compared to α-GalCer: 1 nM; for Relative ratio IL-4/IFN-γ of cytokine production compared to α-GalCer: Fig. 5a; for Relative ratio IL-17A/IFN-γ of cytokine production compared to α-GalCer: Fig. 5b; for cytokine polarization in words: from relative ratios, Fig. 5
Method: Spleen cell suspensions (from C57BL/6 mice) were prepared in complete medium (RPMI 1,640 media supplemented with 10% FBS and 1% penicillin–streptomycin) and seeded into 96-well plates (6.0 × 10^5 cells/well). Lipid ligands were added, and the mixture were incubated at 37 °C for 48 h. IFN-γ, IL-4 and IL-17A release were measured with an ELISA kit (Affymetrix).

Compound	IL-2 production (exact values of IL-2) (mCD1d-Fc fusion protein)	IL-4 production (mouse splenocytes)	IL-17A production (mouse splenocytes)	IFN-γ production (mouse splenocytes)	Relative ratio IL-4/IFN-γ of cytokine production compared to α-GalCer (mouse splenocytes)	Relative ratio IL-17A/IFN-γ of cytokine production compared to α-GalCer (mouse splenocytes)	cytokine polarization in words (mouse splenocytes)	IL-2 production (mCD1d-Fc fusion protein)
CCCCCCCCCCCCCC[C@@H](O)[C@@H](O)[C@H](CO[C@H]1O[C@H](CO)[C@H](O)[C@H](O)[C@H]1O)NC(=O)CCCCCCCCCCCN(C)C(=O)CCCCCC [4b]	546 ± 87	743 ± 11	2095 ± 190	17,753 ± 542				
CCCCCCCCCCCCCC[C@@H](O)[C@@H](O)[C@H](CO[C@H]1O[C@H](CO)[C@H](O)[C@H](O)[C@H]1O)NC(=O)CCCCCCCCCCCNC(=O)NCCCCCCCCCCC [5a]	85 ± 26							
CCCCCCCCCCCCCC[C@@H](O)[C@@H](O)[C@H](CO[C@H]1O[C@H](CO)[C@H](O)[C@H](O)[C@H]1O)NC(=O)CCCCCCCCCCCNC(=O)NCCCCC [5b]	376 ± 92	723 ± 73	1774 ± 278	10,799 ± 950				
CCCCCCCCCCCCCC[C@@H](O)[C@@H](O)[C@H](CO[C@H]1O[C@H](CO)[C@H](O)[C@H](O)[C@H]1O)NC(=O)CCCCCCCCCCCNCCCCCCC [6b]	74 ± 26	513 ± 11	990 ± 101	3,764 ± 450	18.3 ± 6.8	66.7 ± 27.4	IL-4- and IL-17A-biasing properties	
CCCCCCCCCCCCCC[C@@H](O)[C@@H](O)[C@H](CO[C@H]1O[C@H](CO)[C@H](O)[C@H](O)[C@H]1O)NC(=O)CCCCCCCCCCCCC(=O)CCCCCCCCCCCC [7a]	424 ± 32							
CCCCCCCCCCCCCC[C@@H](O)[C@@H](O)[C@H](CO[C@H]1O[C@H](CO)[C@H](O)[C@H](O)[C@H]1O)NC(=O)CCCCCCCCCCCCC(=O)CCCCCC [7b]	600 ± 20	448 ± 40	656 ± 69	4,276 ± 261	12.7 ± 4.0	48.6 ± 15.6	IL-4- and IL-17A-biasing properties	
CCCCCCCCCCCC/C=C/CCCCCCCCCCCC(=O)N[C@@H](CO[C@H]1O[C@H](CO)[C@H](O)[C@H](O)[C@H]1O)[C@H](O)[C@H](O)CCCCCCCCCCCCCC [8a]								1626 ± 371
CCCCCC/C=C/CCCCCCCCCCCC(=O)N[C@@H](CO[C@H]1O[C@H](CO)[C@H](O)[C@H](O)[C@H]1O)[C@H](O)[C@H](O)CCCCCCCCCCCCCC [8b]								334 ± 19
CCCCCCCCCCCC/C=C\CCCCCCCCCCCC(=O)N[C@@H](CO[C@H]1O[C@H](CO)[C@H](O)[C@H](O)[C@H]1O)[C@H](O)[C@H](O)CCCCCCCCCCCCCC [9a]								1556 ± 91
CCCCCC/C=C\CCCCCCCCCCCC(=O)N[C@@H](CO[C@H]1O[C@H](CO)[C@H](O)[C@H](O)[C@H]1O)[C@H](O)[C@H](O)CCCCCCCCCCCCCC [9b]								925 ± 57
CCCCCCCCCCCCCCCCCCCC(=O)N[C@@H](CO[C@H]1O[C@H](CO)[C@H](O)[C@H](O)[C@H]1O)[C@H](O)[C@H](O)CCCCCCCCCCCCCC [C20:0-α-GalCer, reference compound]		85 ± 52	696 ± 38	1,353 ± 731				
